Consider ten compounds from patent publication US20110224186A1, “CARBACEPHEM BETA-LACTAM ANTIBIOTICS” (Achaogen, Inc., priority 2008, published 2011).

Holding throughout (assay): MIC assay, broth microdilution in CAMHB
What all share (assay type): cell-based
In general terms: Dilution methods test growth across graded concentrations, often in twofold steps.

For assay [1], the system named is S. aureus ASAU1043 (MRSA, CIP, ERY, CLI, GEN resistant). The following applies: 2% NaCl, 16-20 h at 35° C.; for MIC: Staphylococcus aureus, read-out: MIC ASAU 1043. As to the method:
(§1) The in vitro MIC for bacterial isolates may be obtained in the following manner: a test compound is incorporated into a series of two-fold dilutions in cation adjusted Mueller-Hinton broth (CAMHB). Different bacterial strains diluted to provide a uniform inoculum are added to the CAMHB containing test compounds. A well without test compound is included for each strain as a growth control. […] The procedures used in these experiments are generally those standardized by the Clinical and Laboratory Standards Institute (CLSI), as set forth in the CLSI publication entitled “M7-A7. Methods for dilution antimicrobial susceptibility tests for bacteria that grow aerobically; approved standard-seventh edition.” (2006), which is incorporated by reference as if fully set forth herein. The following exemplifies such a procedure although it is to be understood that modifications of the procedure may be implemented as required.
(§2) Two-fold dilutions of the test compounds are prepared in CAMHB at 2× the concentration range to be tested if the compounds are soluble in aqueous solution. Alternately, dimethylsulfoxide (DMSO) is used to prepare two-fold dilutions at 10× the concentration range to be tested. Reference drugs such as cefotaxime, vancomycin or imipenem are used as positive controls. A few isolated colonies are retrieved from a pure culture prepared on an agar plate and suspended in PBS until the turbidity of the suspension matches a 0.5 McFarland standard which is equal to approximately 10^8 CFU/mL. This solution is further diluted in CAMHB to 10^6 CFU/mL if compounds are diluted in CAMHB and 5×10^5 CFU/mL if compounds are diluted in DMSO. The CAMHB plates containing the compound dilutions are combined in equal volumes with the higher density inoculum, or 10 μL of the DMSO dilutions are added to the lower density inoculum. When S. aureus is the organism being tested and the compound is oxacillin, a beta-lactam or a carbacephem compound of the present invention, 2% NaCl is added to the growth media. The plates are then incubated for 16-20 h at 35° C. The plates are then observed to determine which concentration of the test compound is the MIC.

Assay [2] concerns S. aureus ASAU001 (Susceptible Organism ATCC 29213). The following applies: 16-20 h at 35° C.; for MIC: Staphylococcus aureus, ATCC29213, 2% NaCl, read-out: MIC ASAU 001. As to the method:
as §1, §2

Assay [3] relates to S. aureus ASAU1033 (MRSA, CIP, ERY, CLIN, TET, GEN resistant). The following applies: 2% NaCl, 16-20 h at 35° C.; for MIC: Staphylococcus aureus, read-out: MIC ASAU 1033. As for the experimental part:
as §1, §2

Assay [4] relates to S. aureus ASAU002 (MRSA ATCC 33591). As to conditions: 2% NaCl, 16-20 h at 35° C.; for MIC: Staphylococcus aureus, read-out: MIC ASAU 002. As for the experimental part:
as §1, §2

Assay [5] has as its system S. aureus ASAU1028 (CA-MRSA, USA400). As to conditions: 2% NaCl, 16-20 h at 35° C.; for MIC: Staphylococcus aureus, read-out: MIC ASAU 1028. As to the method: as §1, §2
The test system of assay [6] is S. aureus ASAU1029 (CA-MRSA, USA300). The following applies: 2% NaCl, 16-20 h at 35° C.; for MIC: Staphylococcus aureus, read-out: MIC ASAU 1029. As for the experimental part: as §1, §2

Values after ≈ are worked out from the molar mass of the structure shown.

A word on the MIC: it is the lowest concentration found to suppress growth. Regarding `Nc1nc(/C(=N\O)C(=O)NC2C(=O)N3C(C(=O)O)=C(/C=C4\CCN(C5CCNC5)C4=O)CS[C@H]23)ns1` (stereo partly drawn) [Comparative Compound 1, reference compound], the MIC is 1 to 8 µg/mL (≈ 1.87 to 15 µM) in assay [1]; at most 1 µg/mL in assay [2]; 1 to 8 µg/mL (≈ 1.87 to 15 µM) in assay [3]; 1 to 8 µg/mL (≈ 1.87 to 15 µM) in assay [4]; at most 1 µg/mL in assay [5]; at most 1 µg/mL in assay [6].
For the compound `Nc1nnc(SC2=C(C(=O)O)N3C(=O)[C@@H](NC(=O)/C(=N\O)c4nc(N)sc4Cl)[C@H]3CC2)s1` [Comparative Compound 2, reference compound], the MIC in assay [1] was 1 to 8 µg/mL (≈ 1.93 to 15.5 µM); in assay [2], at most 1 µg/mL; in assay [3] it was 1 to 8 µg/mL (≈ 1.93 to 15.5 µM); in assay [4] it was at most 1 µg/mL; in assay [5], 1 to 8 µg/mL (≈ 1.93 to 15.5 µM); in assay [6] it was 1 to 8 µg/mL (≈ 1.93 to 15.5 µM).
As for `Nc1nc(/C(=N/O)C(=O)N[C@@H]2C(=O)N3C(C(=O)O)=C(SCc4ccncc4)CC[C@H]23)c(Cl)s1` [Example 17, (6R,7S,Z)-7-(2-(2-amino-5-chlorothiazol-4-yl)-2-(hydroxyimino)acetamido)-8-oxo-3-(pyridin-4-ylmethylthio)-1-aza-bicyclo[4.2.0]oct-2-ene-2-carboxylic acid], the minimal inhibitory concentration (MIC) was over 8 µg/mL in assay [1]; at most 1 µg/mL in assay [2]; over 8 µg/mL in assay [3]; over 8 µg/mL in assay [4]; 1 to 8 µg/mL (≈ 1.96 to 15.7 µM) in assay [5]; 1 to 8 µg/mL (≈ 1.96 to 15.7 µM) in assay [6].
As for `Nc1nc(/C(=N/O)C(=O)N[C@@H]2C(=O)N3C(C(=O)O)=C(SCc4ccccc4)CC[C@H]23)c(Cl)s1` [Example 18, (6R,7S,Z)-7-(2-(2-amino-5-chlorothiazol-4-yl)-2-(hydroxyimino)acetamido)-3-(benzylthio)-8-oxo-1-aza-bicyclo[4.2.0]oct-2-ene-2-carboxylic acid], the MIC in assay [1] is 1 to 8 µg/mL (≈ 1.97 to 15.7 µM); in assay [2], at most 1 µg/mL; in assay [3], 1 to 8 µg/mL (≈ 1.97 to 15.7 µM); in assay [4], at most 1 µg/mL; in assay [5], at most 1 µg/mL; in assay [6] it was at most 1 µg/mL.
On to `Nc1nc(/C(=N/O)C(=O)N[C@@H]2C(=O)N3C(C(=O)O)=C(SCSc4nncs4)CC[C@H]23)c(Cl)s1` [Example 23, (6R,7S,Z)-3-((1,3,4-thiadiazol-2-ylthio)methylthio)-7-(2-(2-amino-5-chlorothiazol-4-yl)-2-(hydroxyimino)acetamido)-8-oxo-1-aza-bicyclo[4.2.0]oct-2-ene-2-carboxylic acid], for which the MIC in assay [1] is over 8 µg/mL; in assay [2], at most 1 µg/mL; in assay [3], over 8 µg/mL; in assay [4], 1 to 8 µg/mL (≈ 1.82 to 14.6 µM); in assay [5] it was 1 to 8 µg/mL (≈ 1.82 to 14.6 µM); in assay [6] it was 1 to 8 µg/mL (≈ 1.82 to 14.6 µM).
`CNc1nnc(SCSC2=C(C(=O)O)N3C(=O)[C@@H](NC(=O)/C(=N\O)c4nc(N)sc4Cl)[C@H]3CC2)s1` [Example 25, (6R,7S,Z)-7-(2-(2-amino-5-chlorothiazol-4-yl)-2-(hydroxyimino)acetamido)-3-((5-(methylamino)-1,3,4-thiadiazol-2-ylthio)methylthio)-8-oxo-1-aza-bicyclo[4.2.0]oct-2-ene-2-carboxylic acid]: the MIC in assay [1] is over 8 µg/mL; in assay [2] it was at most 1 µg/mL; in assay [3], over 8 µg/mL; in assay [4], 1 to 8 µg/mL (≈ 1.73 to 13.9 µM); in assay [5], 1 to 8 µg/mL (≈ 1.73 to 13.9 µM); in assay [6] it was 1 to 8 µg/mL (≈ 1.73 to 13.9 µM).
For `Nc1nc(/C(=N/O)C(=O)N[C@@H]2C(=O)N3C(C(=O)O)=C(SCc4cn[nH]c4)CC[C@H]23)c(Cl)s1` [Example 27, (6R,7S,Z)-3-((1H-pyrazol-4-yl)methylthio)-7-(2-(2-amino-5-chlorothiazol-4-yl)-2-(hydroxyimino)acetamido)-8-oxo-1-aza-bicyclo[4.2.0]oct-2-ene-2-carboxylic acid], the MIC was over 8 µg/mL in assay [1]; at most 1 µg/mL in assay [2]; over 8 µg/mL in assay [3]; 1 to 8 µg/mL (≈ 2.01 to 16.1 µM) in assay [4]; 1 to 8 µg/mL (≈ 2.01 to 16.1 µM) in assay [5]; 1 to 8 µg/mL (≈ 2.01 to 16.1 µM) in assay [6].
For `Cc1ncsc1/C=C\C1=C(C(=O)O)N2C(=O)[C@@H](NC(=O)/C(=N\O)c3nc(N)sc3Cl)[C@H]2CC1` [Example 29, (6R,7S)-7-((Z)-2-(2-amino-5-chlorothiazol-4-yl)-2-(hydroxyimino)acetamido)-3-((Z)-2-(4-methylthiazol-5-yl)vinyl)-8-oxo-1-aza-bicyclo[4.2.0]oct-2-ene-2-carboxylic acid], the MIC in assay [1] was 1 to 8 µg/mL (≈ 1.96 to 15.7 µM); in assay [2] it was at most 1 µg/mL; in assay [3], 1 to 8 µg/mL (≈ 1.96 to 15.7 µM); in assay [4], 1 to 8 µg/mL (≈ 1.96 to 15.7 µM); in assay [5], at most 1 µg/mL; in assay [6] it was at most 1 µg/mL.
For `Cc1ncsc1/C=C\C1=C(C(=O)O)N2C(=O)[C@@H](NC(=O)/C(=N\O)c3nc(N)sc3Cl)[C@H]2CC1` [Example 31, (6R,7S)-7-((Z)-2-(2-amino-5-chlorothiazol-4-yl)-2-(hydroxyimino)acetamido)-3-((Z)-2-(4-methylthiazol-5-yl)vinyl)-8-oxo-1-aza-bicyclo[4.2.0]oct-2-ene-2-carboxylic acid], the “MIC ASAU 1043” value in assay [1] is “B (MIC's of greater than 1.0 μg/mL to 8.0 μg/mL = B)”. Also, in assay [2] (2% NaCl), the “MIC ASAU 001” value is “A (MIC's of 1.0 μg/mL or less = A)”. Moreover, the “MIC ASAU 1033” value in assay [3] is listed as “B (MIC's of greater than 1.0 μg/mL to 8.0 μg/mL = B)”. For the same compound, the “MIC ASAU 002” value in assay [4] is “B (MIC's of greater than 1.0 μg/mL to 8.0 μg/mL = B)”. Also, the “MIC ASAU 1028” value in assay [5] is reported as “B (MIC's of greater than 1.0 μg/mL to 8.0 μg/mL = B)”. The “MIC ASAU 1029” value in assay [6] was “B (MIC's of greater than 1.0 μg/mL to 8.0 μg/mL = B)”.
Take `Nc1nc(/C(=N/O)C(=O)N[C@@H]2C(=O)N3C(C(=O)O)=C(/C=C4\CCN([C@@H]5CCNC5)C4=O)CC[C@H]23)c(Cl)s1` [Example 34, (6R,7S)-7-((Z)-2-(2-amino-5-chlorothiazol-4-yl)-2-(hydroxyimino)acetamido)-8-oxo-3-((E)-((R)-2-oxo-1,3′-bipyrrolidin-3-ylidene)methyl)-1-aza-bicyclo[4.2.0]oct-2-ene-2-carboxylic acid]: the MIC in assay [1] was 1 to 8 µg/mL (≈ 1.82 to 14.5 µM); in assay [2], at most 1 µg/mL; in assay [3] it was 1 to 8 µg/mL (≈ 1.82 to 14.5 µM); in assay [4], 1 to 8 µg/mL (≈ 1.82 to 14.5 µM); in assay [5] it was 1 to 8 µg/mL (≈ 1.82 to 14.5 µM); in assay [6] it was at most 1 µg/mL.
